Laboratory results reported in patent US4293489A, “Derivatives of A-30912A nucleus” (Eli Lilly and Company, priority 1980, dated 1981).
Like-named read-outs stand apart in the source and are kept apart here. Starred links: 1 amine or outer side, 2 acyl side, 3 side chain; linkers in the order of their positions; H or OH if unused. Positions of bridges follow the written chain, without caps; N, C: chain ends. Non-standard residues stand in square brackets, D forms with d. Residues, ends and D or L forms follow the SMILES beside them. *: point of attachment. Orn(4R-OH,5R-OH) = O=C([C@H](C[C@@H](O)[C@@H](O)N[*:3])N[*:1])[*:2]; hTyr(3S-OH,4S-OH) = N[C@H](C(=O)O)[C@H](O)[C@@H](O)c1ccc(O)cc1; Benzoyl(4-dodecyloxy) = CCCCCCCCCCCCOc1ccc(C(=O)*)cc1; Benzoyl(4-OC10H21) = CCCCCCCCCCOc1ccc(C(=O)*)cc1; Pro(3S-OH,4S-Me) = C[C@H]1CN[C@H](C(=O)O)[C@H]1O; X2 = CCCCCCCCCCCCCCS(=O)(=O)c1ccc(C(=O)*)cc1; X5 = CCCCCCCCCCCCS(=O)(=O)c1ccc(C(=O)*)cc1; X28 = CCCCCCCC[S+]([O-])c1ccc(C(=O)*)cc1; X20 = CCCCCCCCCCCCCCOc1ccc(C(=O)*)cc1; X24 = CCCCCCCCCCCCCCOc1cccc(C(=O)*)c1; X27 = CCCCCCCCCCCCOc1cccc(CC(=O)*)c1; X3 = CCCCCCCCCCCCCCSc1ccc(C(=O)*)cc1; X1 = CCCCCCCCCCCCSc1ccc(C(=O)*)cc1; Hyp = O=C(O)[C@@H]1C[C@@H](O)CN1; X6 = CCCCCCCCCCSc1ccc(C(=O)*)cc1; X9 = CCCCCCCCCCOc1cccc(C(=O)*)c1; X13 = CCCCCCCCOc1cccc(C(=O)*)c1; X7 = CCCCCCCCSc1ccc(C(=O)*)cc1

Columns and labels:
Candida albicans A-26 [1] = assay: Therapeutic activity against Candida albicans A-26 infection in mice, ED50; assay type: in vivo; details: doses 0, 4 and 24 hours post infection, increase in survival time vs control, Reed-Muench
Method: (§1) The results of in vivo tests to evaluate the effectiveness of the compounds of Examples 3 and 4 against an infection caused by Candida albicans A-26 in mice are given in Table 13, where activity is measured by the ED50 value (the dose in mg/kg. required to cure 50% of the test animals). In a separate test, the results of which are also summarized in Table 13, activity is indicated by the lowest dose at which a significant anti-fungal effect is observed. In this test, groups of male albino mice (specific pathogen free), weighing 18 to 20 grams, are infected intravenously with Candida albicans A-26. The animals are X-irradiated 24 hours prior to infection at about 50 roentgens per minute for 8 minutes (400 total dose) to reduce immune responses to the infecting organism. At 0, 4, and 24 hours post infection each group of mice is given graded doses subcutaneously of the test compound as a suspension in 33% polyethylene glycol (PEG)-water. The day of death for each animal is recorded.
(§2) *Dosage Schedules: A. = 40, 20, 15 and 10 mg/kg; Dosages given 0, 4, and
(§3) 24 hours post injection as suspension of test compound in 30% PEGH2
(§4) O. Number of mice receiving test compounds at each dosage level: 6 mice
(§5) per group. Number of mice in control (untreated) group: 10 mice per group
**As measured by increase in survival time of treated animals versus
control, calculated by method of Reed v Mueuch, American J. Hygiene, 27,

Candida albicans A-26 [2] = assay: Therapeutic activity against Candida albicans A-26 infection in X-irradiated mice, lowest active dose; assay type: in vivo; details: A26, light or radiation study, sc
Method: as §1, §2, §3, §4, §5

[3] = Candida albicans, A26, sc, read-out: ED50
[4] = X-irradiated mice, subcutaneous at 0, 4 and 24 hours post infection, survival, read-out: Lowest Active Dose
[5] = read-out: Lowest Active Dose, X-irradiated mice, subcutaneous at 0, 4 and 24 hours post infection, survival

Compound	ED50 (Candida albicans A-26 [1]; [3]) [mg/kg]	minimal effective dose (Candida albicans A-26 [2]; [4]) [mg/kg]	minimal effective dose (Candida albicans A-26 [2]; [5]) [mg/kg]	ED50 (Candida albicans A-26 [1]) [mg/kg]
CCCCCCCCCCCCCCOc1cccc(C(=O)N[C@H]2C[C@@H](O)[C@@H](O)NC(=O)[C@@H]3[C@@H](O)[C@@H](C)CN3C(=O)[C@H]([C@@H](C)O)NC(=O)[C@H]([C@H](O)[C@@H](O)c3ccc(O)cc3)NC(=O)[C@@H]3C[C@@H](O)CN3C(=O)[C@H]([C@@H](C)O)NC2=O)c1 (X24-[Orn(4R-OH,5R-OH)]T[Hyp][hTyr(3S-OH,4S-OH)]T[Pro(3S-OH,4S-Me)]; lactam 1-C)	> 50	> 40	–	–
CCCCCCCCCCCCOc1cccc(CC(=O)N[C@H]2C[C@@H](O)[C@@H](O)NC(=O)[C@@H]3[C@@H](O)[C@@H](C)CN3C(=O)[C@H]([C@@H](C)O)NC(=O)[C@H]([C@H](O)[C@@H](O)c3ccc(O)cc3)NC(=O)[C@@H]3C[C@@H](O)CN3C(=O)[C@H]([C@@H](C)O)NC2=O)c1 (X27-[Orn(4R-OH,5R-OH)]T[Hyp][hTyr(3S-OH,4S-OH)]T[Pro(3S-OH,4S-Me)]; lactam 1-C)	7.4	20	–	–
CCCCCCCC[S+]([O-])c1ccc(C(=O)N[C@H]2C[C@@H](O)[C@@H](O)NC(=O)[C@@H]3[C@@H](O)[C@@H](C)CN3C(=O)[C@H]([C@@H](C)O)NC(=O)[C@H]([C@H](O)[C@@H](O)c3ccc(O)cc3)NC(=O)[C@@H]3C[C@@H](O)CN3C(=O)[C@H]([C@@H](C)O)NC2=O)cc1 (stereo partly drawn) (X28-[Orn(4R-OH,5R-OH)]T[Hyp][hTyr(3S-OH,4S-OH)]T[Pro(3S-OH,4S-Me)]; lactam 1-C)	56.6	> 40	–	–
CCCCCCCCCCOc1ccc(C(=O)N[C@H]2C[C@@H](O)[C@@H](O)NC(=O)[C@@H]3[C@@H](O)[C@@H](C)CN3C(=O)[C@H]([C@@H](C)O)NC(=O)[C@H]([C@H](O)[C@@H](O)c3ccc(O)cc3)NC(=O)[C@@H]3C[C@@H](O)CN3C(=O)[C@H]([C@@H](C)O)NC2=O)cc1 [drawing 152] ({Benzoyl(4-OC10H21)}-[Orn(4R-OH,5R-OH)]T[Hyp][hTyr(3S-OH,4S-OH)]T[Pro(3S-OH,4S-Me)]; lactam 1-C)	8	–	5	–
CCCCCCCCCCCCOc1ccc(C(=O)N[C@H]2C[C@@H](O)[C@@H](O)NC(=O)[C@@H]3[C@@H](O)[C@@H](C)CN3C(=O)[C@H]([C@@H](C)O)NC(=O)[C@H]([C@H](O)[C@@H](O)c3ccc(O)cc3)NC(=O)[C@@H]3C[C@@H](O)CN3C(=O)[C@H]([C@@H](C)O)NC2=O)cc1 [drawing 153] ({Benzoyl(4-dodecyloxy)}-[Orn(4R-OH,5R-OH)]T[Hyp][hTyr(3S-OH,4S-OH)]T[Pro(3S-OH,4S-Me)]; lactam 1-C)	< 5	2.5	≤ 5	3.9
CCCCCCCCCCCCCCOc1ccc(C(=O)N[C@H]2C[C@@H](O)[C@@H](O)NC(=O)[C@@H]3[C@@H](O)[C@@H](C)CN3C(=O)[C@H]([C@@H](C)O)NC(=O)[C@H]([C@H](O)[C@@H](O)c3ccc(O)cc3)NC(=O)[C@@H]3C[C@@H](O)CN3C(=O)[C@H]([C@@H](C)O)NC2=O)cc1 [drawing 154] (X20-[Orn(4R-OH,5R-OH)]T[Hyp][hTyr(3S-OH,4S-OH)]T[Pro(3S-OH,4S-Me)]; lactam 1-C)	3	–	5	–
CCCCCCCCSc1ccc(C(=O)N[C@H]2C[C@@H](O)[C@@H](O)NC(=O)[C@@H]3[C@@H](O)[C@@H](C)CN3C(=O)[C@H]([C@@H](C)O)NC(=O)[C@H]([C@H](O)[C@@H](O)c3ccc(O)cc3)NC(=O)[C@@H]3C[C@@H](O)CN3C(=O)[C@H]([C@@H](C)O)NC2=O)cc1 [drawing 155] (X7-[Orn(4R-OH,5R-OH)]T[Hyp][hTyr(3S-OH,4S-OH)]T[Pro(3S-OH,4S-Me)]; lactam 1-C)	37.4	–	10	–
CCCCCCCCCCSc1ccc(C(=O)N[C@H]2C[C@@H](O)[C@@H](O)NC(=O)[C@@H]3[C@@H](O)[C@@H](C)CN3C(=O)[C@H]([C@@H](C)O)NC(=O)[C@H]([C@H](O)[C@@H](O)c3ccc(O)cc3)NC(=O)[C@@H]3C[C@@H](O)CN3C(=O)[C@H]([C@@H](C)O)NC2=O)cc1 [drawing 156] (X6-[Orn(4R-OH,5R-OH)]T[Hyp][hTyr(3S-OH,4S-OH)]T[Pro(3S-OH,4S-Me)]; lactam 1-C)	28	20	–	–
CCCCCCCCCCCCSc1ccc(C(=O)N[C@H]2C[C@@H](O)[C@@H](O)NC(=O)[C@@H]3[C@@H](O)[C@@H](C)CN3C(=O)[C@H]([C@@H](C)O)NC(=O)[C@H]([C@H](O)[C@@H](O)c3ccc(O)cc3)NC(=O)[C@@H]3C[C@@H](O)CN3C(=O)[C@H]([C@@H](C)O)NC2=O)cc1 [drawing 157] (X1-[Orn(4R-OH,5R-OH)]T[Hyp][hTyr(3S-OH,4S-OH)]T[Pro(3S-OH,4S-Me)]; lactam 1-C)	2	< 1.25	–	–
CCCCCCCCCCCCCCSc1ccc(C(=O)N[C@H]2C[C@@H](O)[C@@H](O)NC(=O)[C@@H]3[C@@H](O)[C@@H](C)CN3C(=O)[C@H]([C@@H](C)O)NC(=O)[C@H]([C@H](O)[C@@H](O)c3ccc(O)cc3)NC(=O)[C@@H]3C[C@@H](O)CN3C(=O)[C@H]([C@@H](C)O)NC2=O)cc1 [drawing 158] (X3-[Orn(4R-OH,5R-OH)]T[Hyp][hTyr(3S-OH,4S-OH)]T[Pro(3S-OH,4S-Me)]; lactam 1-C)	20	2.5	–	–
CCCCCCCCCCCCS(=O)(=O)c1ccc(C(=O)N[C@H]2C[C@@H](O)[C@@H](O)NC(=O)[C@@H]3[C@@H](O)[C@@H](C)CN3C(=O)[C@H]([C@@H](C)O)NC(=O)[C@H]([C@H](O)[C@@H](O)c3ccc(O)cc3)NC(=O)[C@@H]3C[C@@H](O)CN3C(=O)[C@H]([C@@H](C)O)NC2=O)cc1 [drawing 161] (X5-[Orn(4R-OH,5R-OH)]T[Hyp][hTyr(3S-OH,4S-OH)]T[Pro(3S-OH,4S-Me)]; lactam 1-C)	53	20	–	–
CCCCCCCCCCCCCCS(=O)(=O)c1ccc(C(=O)N[C@H]2C[C@@H](O)[C@@H](O)NC(=O)[C@@H]3[C@@H](O)[C@@H](C)CN3C(=O)[C@H]([C@@H](C)O)NC(=O)[C@H]([C@H](O)[C@@H](O)c3ccc(O)cc3)NC(=O)[C@@H]3C[C@@H](O)CN3C(=O)[C@H]([C@@H](C)O)NC2=O)cc1 [drawing 162] (X2-[Orn(4R-OH,5R-OH)]T[Hyp][hTyr(3S-OH,4S-OH)]T[Pro(3S-OH,4S-Me)]; lactam 1-C)	11	–	5	–
CCCCCCCCOc1cccc(C(=O)N[C@H]2C[C@@H](O)[C@@H](O)NC(=O)[C@@H]3[C@@H](O)[C@@H](C)CN3C(=O)[C@H]([C@@H](C)O)NC(=O)[C@H]([C@H](O)[C@@H](O)c3ccc(O)cc3)NC(=O)[C@@H]3C[C@@H](O)CN3C(=O)[C@H]([C@@H](C)O)NC2=O)c1 [drawing 163] (X13-[Orn(4R-OH,5R-OH)]T[Hyp][hTyr(3S-OH,4S-OH)]T[Pro(3S-OH,4S-Me)]; lactam 1-C)	> 50	40	–	–
CCCCCCCCCCOc1cccc(C(=O)N[C@H]2C[C@@H](O)[C@@H](O)NC(=O)[C@@H]3[C@@H](O)[C@@H](C)CN3C(=O)[C@H]([C@@H](C)O)NC(=O)[C@H]([C@H](O)[C@@H](O)c3ccc(O)cc3)NC(=O)[C@@H]3C[C@@H](O)CN3C(=O)[C@H]([C@@H](C)O)NC2=O)c1 [drawing 164] (X9-[Orn(4R-OH,5R-OH)]T[Hyp][hTyr(3S-OH,4S-OH)]T[Pro(3S-OH,4S-Me)]; lactam 1-C)	> 50	> 40	–	–
